Active and inactive are the calls of the source.
What was measured:
[1] = tested on: Streptococcus sp. 'group A'; test: growth inhibition of control SK(-) GAS strain, dose response, counter-screen for streptokinase expression inhibitor project, luminescence, kanamycin, BacTiterGlo, confirmation (AID 1900); format: functional, organism-based
[2] = tested on: Streptococcus; test: Group A Streptococcus viability loss, dose response, counter-screen for streptokinase expression inhibitor project, luminescence, BacTiterGlo (AID 1915); format: functional, organism-based;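 also: potency for reduction of bacterial viability or growth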
[3] = target: T1, Methionyl-tRNA synthetase, putative (Trypanosoma brucei brucei, UniProt Q38C91); format: functional, Trypanosoma brucei brucei strain 927/4 GUTat10.1
T1 sequence (Q38C91 whole entry): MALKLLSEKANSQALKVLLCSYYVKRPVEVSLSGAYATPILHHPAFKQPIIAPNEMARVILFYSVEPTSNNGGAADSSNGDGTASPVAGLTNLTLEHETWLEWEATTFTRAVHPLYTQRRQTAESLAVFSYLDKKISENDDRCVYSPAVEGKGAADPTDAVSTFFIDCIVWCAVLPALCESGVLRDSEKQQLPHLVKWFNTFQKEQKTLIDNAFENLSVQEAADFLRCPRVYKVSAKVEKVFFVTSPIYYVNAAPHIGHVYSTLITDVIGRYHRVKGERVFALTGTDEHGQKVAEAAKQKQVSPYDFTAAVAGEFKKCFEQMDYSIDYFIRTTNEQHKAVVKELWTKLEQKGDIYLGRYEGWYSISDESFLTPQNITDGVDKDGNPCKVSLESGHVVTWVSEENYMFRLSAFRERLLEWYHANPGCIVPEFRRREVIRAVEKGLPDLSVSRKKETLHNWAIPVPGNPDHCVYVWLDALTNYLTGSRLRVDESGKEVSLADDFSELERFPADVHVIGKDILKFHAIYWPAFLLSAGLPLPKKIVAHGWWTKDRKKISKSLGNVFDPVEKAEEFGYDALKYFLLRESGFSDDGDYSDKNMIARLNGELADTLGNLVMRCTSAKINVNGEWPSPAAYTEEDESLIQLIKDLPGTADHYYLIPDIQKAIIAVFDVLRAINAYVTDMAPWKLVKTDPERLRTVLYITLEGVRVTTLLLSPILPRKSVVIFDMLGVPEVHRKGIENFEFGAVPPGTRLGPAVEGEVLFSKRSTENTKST

[4] = Counterscreen for inhibitors of Trypanosoma brucei methionyl tRNA synthetase (MetRS): Luminescence-based cell-based high throughput dose response assay to identify compounds that are cytotoxic to Jurkat human T lymphocyte cells.; format: functional
[5] = target: T2, Streptokinase A (Streptococcus pyogenes serotype M1, UniProt P10520); test: S. pyogenes streptokinase expression inhibitors, potency, dose response, plasminogen activation absorbance, OD405 (AID 1914); format: functional, Streptococcus pyogenes M1 GAS;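 also: secreted streptokinase activity via plasminogen activation per viability signal from cell pellet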
T2 sequence (P10520 whole entry): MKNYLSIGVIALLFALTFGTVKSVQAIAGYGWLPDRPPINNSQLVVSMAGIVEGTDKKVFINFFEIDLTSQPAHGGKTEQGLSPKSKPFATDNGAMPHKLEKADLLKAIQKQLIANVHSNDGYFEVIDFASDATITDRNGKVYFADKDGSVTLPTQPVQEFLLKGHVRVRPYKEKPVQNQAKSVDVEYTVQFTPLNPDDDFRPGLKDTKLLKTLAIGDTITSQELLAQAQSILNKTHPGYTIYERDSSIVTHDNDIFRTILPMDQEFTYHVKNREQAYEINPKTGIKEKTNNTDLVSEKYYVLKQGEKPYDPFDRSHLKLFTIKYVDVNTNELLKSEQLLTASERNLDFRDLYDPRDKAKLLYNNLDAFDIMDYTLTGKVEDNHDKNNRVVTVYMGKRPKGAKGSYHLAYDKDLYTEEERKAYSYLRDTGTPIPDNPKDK

[6] = Late stage counterscreen for inhibitors of Trypanosoma brucei methionyl tRNA synthetase (MetRS): Luminescence-based cell-based high throughput dose response assay to identify compounds that are cytotoxic to Jurkat human T lymphocyte cells.; format: functional
[7] = target: T1, Methionyl-tRNA synthetase, putative; format: functional, Trypanosoma brucei brucei strain 927/4 GUTat10.1; remark: listed apart in the source
[8] = target: T3, Oxysterols receptor LXR-beta (Homo sapiens, UniProt P55055); test: LXR agonists, Gal4 luciferase reporter, dose response, counter-screen for ssDAF-12 agonist project, cell-based, luminescence, HEK293, S. stercoralis campaign (AID 720737); format: functional; settings: read-out: IC50 (the source's name)
T3 sequence (P55055 whole entry): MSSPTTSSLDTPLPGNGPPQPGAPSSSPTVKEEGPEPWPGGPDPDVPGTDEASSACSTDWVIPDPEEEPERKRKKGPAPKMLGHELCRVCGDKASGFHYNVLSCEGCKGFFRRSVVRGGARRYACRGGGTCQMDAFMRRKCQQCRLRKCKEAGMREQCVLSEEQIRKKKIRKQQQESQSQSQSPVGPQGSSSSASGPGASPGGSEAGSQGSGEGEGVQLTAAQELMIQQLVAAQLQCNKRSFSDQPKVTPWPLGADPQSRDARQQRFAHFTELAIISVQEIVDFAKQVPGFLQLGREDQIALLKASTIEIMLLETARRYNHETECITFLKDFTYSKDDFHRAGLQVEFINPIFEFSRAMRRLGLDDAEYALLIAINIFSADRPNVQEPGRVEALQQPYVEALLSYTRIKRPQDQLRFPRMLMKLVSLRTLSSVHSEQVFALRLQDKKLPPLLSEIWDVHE

[9] = Luminescence-based cell-based high throughput dose response assay to identify activators of the DAF-12 from the parasite S. stercoralis (ssDAF-12).; format: functional
[10] = target: Sphingosine 1-phosphate receptor 2 (Homo sapiens, UniProt O95136); test: Dose Response Cell Based Assay for Agonists of the S1P2 Receptor. [Related pubchem assays: 729, 736, 843 ]; format: functional
[11] = inhibitors of Vif binding to APOBEC3G peptide, primary screen, biochemical, TR-FRET, GST-Vif 1-94, biotin-A3G peptide, dose response retest (AID 1117319); format: functional;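 also: TR-FRET signal of purified GST-Vif binding a biotinylated A3G peptide; inhibitors lower the FRET signal by blocking Vif and A3G binding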
[12] = target: T4, Tyrosine-protein phosphatase non-receptor type 7 (Homo sapiens, UniProt P35236); test: inhibitors of human HePTP phosphatase, […], biochemical, absorbance, leukemia target (AID 521); format: functional
T4 sequence (P35236 whole entry): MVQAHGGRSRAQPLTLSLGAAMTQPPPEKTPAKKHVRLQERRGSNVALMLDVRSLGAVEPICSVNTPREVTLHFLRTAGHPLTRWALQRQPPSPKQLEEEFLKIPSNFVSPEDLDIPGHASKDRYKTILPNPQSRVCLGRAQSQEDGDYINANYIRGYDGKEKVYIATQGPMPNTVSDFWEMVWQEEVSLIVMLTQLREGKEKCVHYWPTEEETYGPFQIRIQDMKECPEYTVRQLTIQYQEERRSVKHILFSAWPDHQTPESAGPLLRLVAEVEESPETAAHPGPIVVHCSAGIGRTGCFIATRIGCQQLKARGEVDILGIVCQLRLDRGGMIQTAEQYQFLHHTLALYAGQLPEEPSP

[13] = THP-1 cell cytotoxicity, dose response, cytotoxicity control for Vif-APOBEC3G degradation inhibitor project, THP-1 cells (AID 1117359); format: functional; settings: Human immunodeficiency virus 1, THP-1
[14] = target: T5, Mannose-6-phosphate isomerase (Homo sapiens, UniProt P34949); test: inhibitors of human PMI, primary screen, biochemical, fluorescence intensity, coupled assay (AID 1209)
T5 sequence (P34949 whole entry): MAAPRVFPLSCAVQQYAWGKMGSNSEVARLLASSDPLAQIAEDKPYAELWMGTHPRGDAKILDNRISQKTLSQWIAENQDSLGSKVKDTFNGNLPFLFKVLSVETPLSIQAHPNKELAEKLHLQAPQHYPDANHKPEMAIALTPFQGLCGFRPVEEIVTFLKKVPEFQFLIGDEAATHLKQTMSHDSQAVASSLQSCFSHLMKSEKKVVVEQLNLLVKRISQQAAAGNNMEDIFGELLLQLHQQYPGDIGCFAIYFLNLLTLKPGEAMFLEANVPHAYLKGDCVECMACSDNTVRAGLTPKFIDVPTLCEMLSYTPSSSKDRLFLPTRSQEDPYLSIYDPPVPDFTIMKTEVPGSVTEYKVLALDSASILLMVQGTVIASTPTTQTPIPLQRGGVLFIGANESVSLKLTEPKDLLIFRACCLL

[15] = target: T6, Protein Tat (Human immunodeficiency virus type 1 group M subtype B (isolate HXB2)(HIV-1), UniProt P04608); format: functional;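 also: tat binding to TAR RNA read out by fluorescence polarization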
T6 sequence (P04608 whole entry): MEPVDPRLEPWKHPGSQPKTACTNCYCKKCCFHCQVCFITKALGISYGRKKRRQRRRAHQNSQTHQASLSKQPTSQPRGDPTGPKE

[16] = target: T5, Mannose-6-phosphate isomerase; test: human PMI inhibitors, high substrate, primary screen, biochemical, fluorescence intensity, high mannose 6-phosphate (AID 1220)

Sphingosine 1-phosphate receptor 2, sequence (O95136 whole entry): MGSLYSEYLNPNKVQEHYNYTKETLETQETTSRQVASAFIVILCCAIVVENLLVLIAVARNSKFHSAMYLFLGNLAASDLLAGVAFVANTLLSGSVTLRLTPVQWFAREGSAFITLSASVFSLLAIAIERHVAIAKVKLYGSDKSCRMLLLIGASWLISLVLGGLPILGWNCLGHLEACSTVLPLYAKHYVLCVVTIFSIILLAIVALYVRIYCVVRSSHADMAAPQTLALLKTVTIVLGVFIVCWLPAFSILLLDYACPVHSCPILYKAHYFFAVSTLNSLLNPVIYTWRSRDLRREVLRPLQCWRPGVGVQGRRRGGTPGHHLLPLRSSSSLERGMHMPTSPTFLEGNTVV

Question: Which EC50 [1] does the source give for O=C1CC(N(CCc2ccccc2)C(=S)Nc2ccccc2)C(=O)N1c1ccc(Br)cc1 (centres undefined) here?
Answer: 2.87 µM (active)

Question: What about the EC50 [2] of the same compound?
Answer: 18.3 µM (active)

Question: What about the IC50 [3] of the same compound?
Answer: 0.46 µM (active)

Question: And the IC50 [4]?
Answer: 25.3 µM (inactive)

Question: And the EC50 [5]?
Answer: 2.67 µM (active)

Question: And the IC50 [6]?
Answer: 15.4 µM (inactive)

Question: What about the IC50 [7] of the same compound?
Answer: 0.743 µM (active)

Question: Which EC50 [8] does the source give for Cc1cc(NC(=S)NC(=O)/C=C/c2ccc(S(=O)(=O)N3CCOCC3)cc2)ccc1Br here?
Answer: > 67.5 µM (inactive)

Question: And the IC50 [9]?
Answer: > 67.5 µM (inactive)

Question: Which EC50 [10] does the source give for COc1ccccc1CNC(=O)c1c(N)n(CCCN2CCOCC2)c2nc3ccccc3nc12 here?
Answer: 3.9 µM (active)

Question: Which IC50 [11] does the source give for C[C@@H]1NC(=O)[C@H](CCC(N)=O)NC(=O)c2cc([N+](=O)[O-])cc(I)c2NCCC[C@@H](C(N)=O)NC1=O here?
Answer: > 100 µM (active)

Question: For Oc1ccccc1C1NN=C(c2ccccc2)S1 (centres undefined), which EC50 [8] is on record?
Answer: > 67.5 µM (inactive)

Question: And the IC50 [9]?
Answer: > 67.5 µM (inactive)

Question: For CCc1nnc(NC(=O)CSc2nnc(-c3ccoc3C)n2CC(C)C)s1, which IC50 [12] is on record?
Answer: > 100 µM (not active)

Question: Which CC50 [13] does the source give for COc1cc(CNc2ccc3[nH]c(O)nc3c2)cc(Cl)c1OCC(=O)NC(C)(C)C here?
Answer: > 40 µM (active)

Question: What about the IC50 [11] of the same compound?
Answer: > 51.4 µM (active)

Question: What about the IC50 [14] of the same compound?
Answer: > 50 µM (not active)

Question: What about the IC50 [15] of the same compound?
Answer: 50.5 µM (inconclusive)

Question: And the IC50 [16]?
Answer: > 50 µM (not active)
